According to ChEMBL document CHEMBL1126104, “Synthesis and antiviral activity of some new S-adenosyl-L-homocysteine derivatives” (1992):
In brackets after ≈: the same amount, converted by molar mass.

How the values were obtained:
[1] = system: Human immunodeficiency virus 1; experiment: Antiviral activity against (HIV-1) in MT-4 cells Value in parentheses is inhibitory concentration for cell growth (MT-4); type: functional, MT4
[2] = system: Human alphaherpesvirus 2; experiment: Antiviral activity against HSV-2(G) strain in primary rabbit kidney (PRK) / embryonic skin-muscle (E6SM) fibroblast culture lines; type: functional; conditions: Human alphaherpesvirus 2, Muscle tissue
[3] = system: Coxsackievirus B4; experiment: Antiviral activity against coxsackie B4 in Vero cell culture lines; type: functional; conditions: Enterovirus B
[4] = system: Coxsackievirus B4; experiment: Antiviral activity against coxsackie B4 virus in HeLa cell culture lines; type: functional; conditions: Enterovirus B
[5] = system: Semliki Forest virus; experiment: Antiviral activity against semliki forest virus (SFV) in Vero cell culture lines; type: functional
[6] = system: Vesicular stomatitis virus; experiment: Antiviral activity against vesicular stomatitis virus (VSV) in HeLa cell culture lines,; type: functional
[7] = system: Vesicular stomatitis virus; experiment: Antiviral activity against vesicular stomatitis virus (VSV) in primary rabbit kidney (PRK) / embryonic skin-muscle (E6SM) fibroblast culture lines; type: functional; conditions: Muscle tissue
[8] = system: Vaccinia virus; experiment: Antiviral activity against vaccinia virus (VV) in primary rabbit kidney (PRK) / embryonic skin-muscle (E6SM) fibroblast culture lines; type: functional; conditions: Orthopoxvirus vaccinia, Muscle tissue
[9] = system: Human alphaherpesvirus 1; experiment: Antiviral activity against HSV-1(KOS) strain in primary rabbit kidney (PRK) / embryonic skin-muscle (E6SM) fibroblast culture lines; type: functional; conditions: Human alphaherpesvirus 1, Muscle tissue
[10] = system: Poliovirus 1; experiment: Antiviral activity against polio virus type 1 in HeLa cell culture lines; type: functional; conditions: Enterovirus C
[11] = system: Human respirovirus 3; experiment: Antiviral activity against parainfluenza virus type 3 in Vero cell culture lines; type: functional
[12] = system: Sindbis virus; experiment: Antiviral activity against sindbis virus in Vero cell culture lines; type: functional
[13] = system: Mammalian orthoreovirus 1; experiment: Antiviral activity against reovirus type 1 in Vero cell culture lines; type: functional

Row | Compound | MIC [1] | MIC [2] | MIC [3] | MIC [4] | MIC [5] | MIC [6] | MIC [7] | MIC [8] | MIC [9] | MIC [10] | MIC [11] | MIC [12] | MIC [13]
1 | CC(=O)NC(CCSC[C@H]1OC(n2ccc3c(N)ncnc32)[C@H](O)[C@@H]1O)C(=O)OC(C)C (some centres undefined) | > 4 µg/mL | 40 µg/mL (≈ 85.6 µM) | 40 µg/mL (≈ 85.6 µM) | 70 µg/mL (≈ 150 µM) | > 200 µg/mL | 20 µg/mL (≈ 42.8 µM) | 10 µg/mL (≈ 21.4 µM) | 10 µg/mL (≈ 21.4 µM) | > 100 µg/mL | 100 µg/mL (≈ 214 µM) | > 100 µg/mL | > 100 µg/mL | > 70 µg/mL
2 | Nc1ncnc2c1ncn2[C@@H]1O[C@H](CCl)C[C@H]1O | > 100 µg/mL | > 100 µg/mL | > 40 µg/mL | > 200 µg/mL | > 40 µg/mL | > 200 µg/mL | > 400 µg/mL | > 200 µg/mL | > 200 µg/mL | > 200 µg/mL | > 40 µg/mL | > 40 µg/mL | > 40 µg/mL
3 | Nc1ncnc2c([C@@H]3O[C@H](CO)C[C@H]3O)n[nH]c12 | > 100 µg/mL | > 400 µg/mL | > 200 µg/mL | > 400 µg/mL | > 400 µg/mL | > 400 µg/mL | > 400 µg/mL | > 400 µg/mL | > 400 µg/mL | > 400 µg/mL | 300 µg/mL (≈ 1190 µM) | > 400 µg/mL | > 200 µg/mL
4 | Nc1ncnc2c1CCN2[C@@H]1O[C@H](CO)C[C@H]1O |  | 7 µg/mL (≈ 27.7 µM) | 7 µg/mL (≈ 27.7 µM) | 7 µg/mL (≈ 27.7 µM) | > 40 µg/mL | > 10 µg/mL | > 10 µg/mL | 7 µg/mL (≈ 27.7 µM) | > 10 µg/mL | 7 µg/mL (≈ 27.7 µM) | 7 µg/mL (≈ 27.7 µM) | 30 µg/mL (≈ 119 µM) | 4 µg/mL (≈ 15.9 µM)
5 | Nc1ncnc2c1ncn2[C@@H]1O[C@H](CO)C[C@H]1O [CORDYCEPIN] | > 4 µg/mL | > 40 µg/mL | > 100 µg/mL | > 100 µg/mL | > 100 µg/mL | > 100 µg/mL | > 40 µg/mL | > 100 µg/mL | > 40 µg/mL | > 100 µg/mL | > 100 µg/mL | > 100 µg/mL | > 100 µg/mL
6 | Nc1ncnc2c([C@H]3CC[C@@H](CCl)O3)n[nH]c12 | > 100 µg/mL | > 200 µg/mL | > 200 µg/mL | > 400 µg/mL | > 400 µg/mL | > 400 µg/mL | > 400 µg/mL | > 400 µg/mL | > 200 µg/mL | > 400 µg/mL | > 200 µg/mL | > 200 µg/mL | > 200 µg/mL
7 | COC(=O)C(N)CCSC[C@H]1OC(n2ccc3c(N)ncnc32)[C@H](O)[C@@H]1O (some centres undefined) | > 20 µg/mL | 20 µg/mL (≈ 50.3 µM) | > 100 µg/mL | > 200 µg/mL | > 200 µg/mL | 20 µg/mL (≈ 50.3 µM) | 20 µg/mL (≈ 50.3 µM) | 4 µg/mL (≈ 10.1 µM) | > 100 µg/mL | > 200 µg/mL | > 200 µg/mL | > 200 µg/mL | > 200 µg/mL
8 | CC(C)(C)C(=O)OCn1nc([C@@H]2O[C@H](CO)C[C@H]2O)c2ncnc(N)c21 | > 20 µg/mL | > 100 µg/mL | > 100 µg/mL | > 100 µg/mL | > 100 µg/mL | > 100 µg/mL | > 100 µg/mL | > 100 µg/mL | > 100 µg/mL | > 100 µg/mL | > 100 µg/mL | > 100 µg/mL | > 100 µg/mL
9 | CCCOC(=O)C(N)CCSC[C@H]1OC(n2ccc3c(N)ncnc32)[C@H](O)[C@@H]1O (some centres undefined) | > 20 µg/mL | 2 µg/mL (≈ 4.7 µM) | 70 µg/mL (≈ 165 µM) | > 100 µg/mL | > 150 µg/mL | 20 µg/mL (≈ 47 µM) | 2 µg/mL (≈ 4.7 µM) | 1 µg/mL (≈ 2.35 µM) | 10 µg/mL (≈ 23.5 µM) | > 100 µg/mL | > 70 µg/mL | > 70 µg/mL | > 70 µg/mL
10 | CC(=O)NC(CCSC[C@H]1OC(n2ccc3c(N)ncnc32)[C@H](O)[C@@H]1O)C(=O)O (some centres undefined) | > 200 µg/mL | > 200 µg/mL | > 400 µg/mL | > 400 µg/mL | > 400 µg/mL | > 400 µg/mL | > 200 µg/mL | 7 µg/mL (≈ 16.5 µM) | > 200 µg/mL | > 400 µg/mL | > 400 µg/mL | > 400 µg/mL | > 700 µg/mL
11 | Nc1ncnc2c1CCN2[C@@H]1O[C@H](CSCCC(N)C(=O)O)C[C@H]1O (some centres undefined) |  | > 100 µg/mL | > 200 µg/mL | > 200 µg/mL | > 200 µg/mL | 20 µg/mL (≈ 54.1 µM) | 20 µg/mL (≈ 54.1 µM) | 2 µg/mL (≈ 5.41 µM) | > 100 µg/mL | > 200 µg/mL | 100 µg/mL (≈ 271 µM) | > 200 µg/mL | 70 µg/mL (≈ 189 µM)
12 | Nc1ncnc2c1ncn2[C@H]1C[C@H](O)[C@@H](CO)O1 [DEOXYADENOSINE] | > 20 µg/mL | 100 µg/mL (≈ 398 µM) | > 200 µg/mL | > 200 µg/mL | > 200 µg/mL | > 200 µg/mL | > 200 µg/mL | 150 µg/mL (≈ 597 µM) | > 150 µg/mL | > 200 µg/mL | > 200 µg/mL | > 200 µg/mL | > 200 µg/mL
